Tests used:
[1] = test system: LNCaP cells; test: Cell cycle analysis by flow cytometry; type: cell-based, human; details: 24 h
Procedure: The cell cycle was determined by flow cytometry with DNA staining to reveal the total amount of DNA. Approximately 5×10^5 of cells were incubated in various concentration of isochaihulactone for the indicated time. Cells were harvested by treating the cells with trypsin/EDTA. The cells were collected, washed with PBS, fixed with cold 70% ethanol overnight, and then stained with a solution containing […] PI, 10 mg/ml RNase A, and 0.1% Triton X-100 for 1 h in the dark. The cells will then pass through FACScan flow cytometer (equipped with a 488-nmargon laser) to measure the DNA content. The data was obtained and analyzed with CellQuest 3.0.1 (Becton Dickinson, Franklin Lakes, N.J.) and ModFitLT V2.0 software. The results are shown Table 4 and FIG. 4.
Assays were carried out to examine the effect of Z-K8 in inducing G2/M phase arrest and apoptosis in LNCaP cells. Briefly, the cells were treated with different concentrations of Z-K8 (ranging from 0.25 to 2 μM) for 24 h. The cell cycle analysis was done according to the method described above. As shown in FIG. 4 and Table 4, Z-K8 induced cell cycle G2/M arrest in LNCaP cells.

[2] = test system: liver cancer cell line J5; test: MTT growth inhibition assay, J5; type: cell-based; details: J5, hepatocarcinoma
Procedure: (§1) The results were determined by three independent experiments.
(§2) Besides, the above assay was also conducted on gastric cancer cell line NCI-N87, liver cancer cell line HepG2 and J5, lung cancer cell line A549, and oral cancer cell line OECM-1.

[3] = test system: gastric cancer cell line NCI-N87; test: MTT growth inhibition assay, NCI-N87; type: cell-based; details: NCI-N87, gastric carcinoma
Procedure: as §1, §2

[4] = test system: AR; test: Immunohistochemical staining of xenograft tumors, AR; type: in vivo; details: mice treated with 30 mg/kg (FIG. 8B)
Procedure: Mice xenograft tissue samples were fixed in 10% formalin and embedded in paraffin. After routine rehydration, antigen retrieval and blocking, the sections were incubated in the primary antibody at 4° C. overnight. The primary antibody was recognized by the biotinylated secondary antibody and visualized by vectastain avidin-biotin complex peroxidase system (ABC kit) as well as peroxidase substrate 3,3′-diaminobenzidine kit (DAB kit).
Immunohistochemical staining was conducted using a cleaved caspase-3-specific antibody. […] Similar staining was carried our using an AR-specific antibody.

[5] = test system: LNCaP cells; test: MTT growth inhibition assay, LNCaP; details: for Viability (%) LNCaP: 24 h (Table 2); for Viability (%) / IC50: LNCaP; for Viability (%): 24 h (Table 1); for IC50: androgen-dependent prostate adenocarcinoma
Procedure: The LNCaP (androgen-sensitive), PC3 (androgen in-dependent), human prostate cancer and normal human fibroblast 3T3 were obtained from American Type Culture Collection (Manassas, Va.) were maintained with RPMI 1640 medium containing 10% FBS and […] each of penicillin and streptomycin at […] in a humidified atmosphere with 5% CO2.
The viability of the cells after treated with various chemicals was evaluated using MTT assay preformed in triplicate (Mosmann T. 1983. Rapid colorimetric assay for cellular growth and survival: application to proliferation and cytotoxicity assays”. Journal of immunological methods. 65 (1-2): 55-63). Briefly, the cancer cells (5×10^3) were incubated in 96-well plates containing […] of the culture medium. Cells were permitted to adhere for 12-18 h then washed with phosphate buffered saline (PBS). Solutions were always prepared fresh by dissolving 0.2% DMSO or K8 in culture medium and added to various kind of tumor. After 48 h of exposure, K8 containing medium was removed, washed with PBS and replaced by fresh medium. The cells in each well were then incubated in culture medium with […] MTT for 4 h. After the medium were removed, […] of DMSO and […] of glycine buffer (0.1 M glycine, 0.1 M NaCl, pH 10.5) were added to each well. Absorbance at 570 nm of the maximum was detected by a PowerWave X Microplate ELISA Reader (Bio-TeK Instruments, Winoski, Vt.). The absorbance for DMSO treated cells was considered as 100%. The results were determined by three independent experiments.
Cytotoxicity of K8 (Isochaihulactone) on LNCaP cells was examined in the manner described above. The cells were treated with KS (Isochaihulactone), its Z-form, or its E-form of different concentrations ranging from 2.5 to 20 μM for 24 h.
Cytotoxicities of Z-K8 (Isochaihulactone) on LNCaP (AR-dependent), and PC3 (AR-independent) tumor cell line were examined in the manner described above. The cells were treated with the Z- or E-form K8 (Isochaihulactone) of different concentrations ranging from 0.3125 to 5 μM for 24 h.

[6] = test system: lung cancer cell line A549; test: MTT growth inhibition assay, A549; type: cell-based, human; details: A549, lung adenocarcinoma
Procedure: as §1, §2

What does the source list for `COc1cc(/C=C2\C(=O)OCC2Cc2ccc3c(c2)OCO3)cc(OC)c1OC` (racemic) [Z-K8, Racemic (Z)-β-(3′,4′-Methylenedioxybenzyl)-α-(3′,4′,5′-trimethoxybenzylidene)-γ-butyrolactone]?
Cells in phase (%) G0/G1 ([1]; 0.25 μM): 63.56%; Cells in phase (%) G2/M ([1]; 0.25 μM): 18.35%; Cells in phase (%) S ([1]; 0.25 μM): 5.42%; Cells in phase (%) Sub-G1 ([1]; 0.25 μM): 0.48%; Cells in phase (%) G0/G1 ([1]; 0.5 μM): 48.30%; Cells in phase (%) G2/M ([1]; 0.5 μM): 24.99%; Cells in phase (%) S ([1]; 0.5 μM): 6.61%; Cells in phase (%) Sub-G1 ([1]; 0.5 μM): 3.24%; Cells in phase (%) G0/G1 ([1]; 1 μM): 57.27%; Cells in phase (%) G2/M ([1]; 1 μM): 10.16%; Cells in phase (%) S ([1]; 1 μM): 4.70%; Cells in phase (%) Sub-G1 ([1]; 1 μM): 8.19%; Cells in phase (%) G0/G1 ([1]; 2 μM): 22.25%; Cells in phase (%) G2/M ([1]; 2 μM): 43.92%; Cells in phase (%) S ([1]; 2 μM): 8.39%; Cells in phase (%) Sub-G1 ([1]; 2 μM): 5.73%; IC50 [2]: 2500 nM; IC50 [3]: > 100000 nM; expression of AR in tumors (IHC) versus control [4]: weaker; Viability (%) LNCaP ([5]; 0.625 μM): 68.9%; Viability (%) LNCaP ([5]; 1.25 μM): 43.7%; Viability (%) LNCaP ([5]; 2.5 μM): 21.7%; Viability (%) LNCaP ([5]; 5 μM): 18.4%; Viability (%) LNCaP ([5]; 10 μM): 16.9%; Viability (%) ([5]; 2.5 μM): 33.0%; Viability (%) ([5]; 5 μM): 18.7%; Viability (%) ([5]; 10 μM): 17.2%; Viability (%) ([5]; 20 μM): 16.1%; IC50 [5]: 1250 nM; IC50 ([5]; listed as Z-form of K8): 1000 nM; IC50 [6]: 9800 nM

From US20110178171A1, “COMPOUNDS FOR CANCER THERAPY” (China Medical University, priority 2010, published 2011)
